The results in this text go back to patent publication US7960349B2 (Bristol-Myers Squibb Company, priority 2006, dated 2011).

In data set [1] the target is T1, Mouse GLP-1 Receptor (Mus musculus, UniProt O35659).
T1 construct: expressed in transfected cells; host or cells: CHO cells
T1 sequence (O35659 22-463): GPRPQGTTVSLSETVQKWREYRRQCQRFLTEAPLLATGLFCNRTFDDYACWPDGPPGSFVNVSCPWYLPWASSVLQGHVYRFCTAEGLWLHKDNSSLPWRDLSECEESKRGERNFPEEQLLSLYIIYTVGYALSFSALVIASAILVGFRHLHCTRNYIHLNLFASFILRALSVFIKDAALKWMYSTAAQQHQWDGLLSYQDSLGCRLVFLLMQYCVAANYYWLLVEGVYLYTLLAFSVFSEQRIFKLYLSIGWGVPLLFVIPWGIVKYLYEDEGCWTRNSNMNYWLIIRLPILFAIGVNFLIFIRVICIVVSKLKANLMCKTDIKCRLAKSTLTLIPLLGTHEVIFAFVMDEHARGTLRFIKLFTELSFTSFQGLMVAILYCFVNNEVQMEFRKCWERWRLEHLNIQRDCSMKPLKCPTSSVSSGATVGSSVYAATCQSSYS
The data set can be described thus: Stimulation of cAMP synthesis in CHO cells expressing mouse GLP-1 receptor. It is filed as cell-based. The conditions noted are these: for Emax: CHO, percent of maximal GLP-1 stimulated activity. Here is the method: (§1) CHO-GLP-1R-19 cells (20,000 in 100 μl of media) were plated into each well of a 96-well tissue culture microtiter plate and incubated overnight in a 5% CO2 atmosphere at 37° C. On the day of the assay, cells were washed once with 100 μl of phosphate-buffered saline (PBS). A Biomek 2000 was used to serially dilute all peptides prior to beginning the assay. Serial dilutions were carried out in 100% DMSO.
(§2) 50 μl of each cAMP standard was added by hand and 70 μl of mix reagent (Amersham cAMP SPA kit) was added using the multidrop. […] This standard curve was used to convert CPM to pmol of cAMP.
(§3) Cell plates and peptide plates were loaded onto the Platemate. The media was aspirated from the wells and discarded. 100 uL per well of the peptide/buffer mixture were then added from the peptide plates to initiate the assay. After 30 min. of incubation the peptide/buffer was removed and 50 uL of the lysis reagent 1 solution was added per well. The plate was kept for one hour at RT or overnight if refrigerated and sealed.
(§4) Dose dependence for Compounds was determined at half-log concentrations in duplicate. […] A standard curve was determined using known amounts of cyclic AMP. […] The data were analyzed by nonlinear regression curve fitting (4 parameter sigmoidal dose-response curve) to determine the EC50 of the compounds.

For data set [2], the target named is T2, Human GLP-1 Receptor (Homo sapiens, UniProt P43220).
T2 construct: Full-length human glucagon-like peptide 1 receptor was stably expressed in CHO-K1 cells; expressed in transfected cells; host or cells: CHO-K1 (clone CHO-GLP1R-19)
T2 sequence (P43220 24-463): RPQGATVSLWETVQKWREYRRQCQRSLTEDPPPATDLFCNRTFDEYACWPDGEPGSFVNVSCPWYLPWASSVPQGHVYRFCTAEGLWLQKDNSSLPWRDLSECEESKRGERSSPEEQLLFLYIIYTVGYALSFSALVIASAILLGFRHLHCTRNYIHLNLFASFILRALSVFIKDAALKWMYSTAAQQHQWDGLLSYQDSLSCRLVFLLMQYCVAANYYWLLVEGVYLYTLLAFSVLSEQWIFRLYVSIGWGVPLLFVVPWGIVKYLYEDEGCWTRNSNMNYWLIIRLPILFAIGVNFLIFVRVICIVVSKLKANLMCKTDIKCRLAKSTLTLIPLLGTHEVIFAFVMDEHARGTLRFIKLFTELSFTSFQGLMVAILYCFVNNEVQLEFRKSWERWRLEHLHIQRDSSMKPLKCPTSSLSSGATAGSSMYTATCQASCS
The data set can be described thus: Cyclic AMP determination in CHO cells expressing human GLP-1 receptor. It is filed as cell-based. The note with it: for Mean Hill / Emax: human GLP-1 receptor; for Emax: CHO, percent of maximal GLP-1 stimulated activity. Here is the method: as §1, §2, §3, §4

Data set [3] concerns ob/ob mice. The data set is described as follows: Intraperitoneal glucose tolerance test (ipGTT) in ob/ob mice after sc injection. The note with it: for Potency in ob/ob mice ED50: sc injection, plasma glucose AUC in ipGTT. Format: in vivo, mouse. Here is the method:
(§5) Peptides were dissolved in an appropriate vehicle at a concentration in nmol/ml equivalent to the dose that was to be administered in nmol/kg so that each mouse would receive the same volume/weight of dosing solution. Male C57BL/6-ob/ob mice (10 weeks old) were randomized into groups of 6 mice per group based on fed plasma glucose and body weight. After an overnight fast, mice were weighed and placed in the experimental lab. After 30 min in the environment, the mice were bled via tail tip at −30 min and immediately injected subcutaneously (sc) with vehicle or the peptide dissolved in vehicle (0.1 ml solution/100 g body weight). At time 0 the mice were bled and then injected intraperitoneally with 50% glucose (2 g/kg) to initiate the intraperitoneal glucose tolerance test (ipGTT). The mice were bled 30, 60, 120 and 180 min after the glucose injection. Blood samples were drawn into potassium EDTA, placed on ice during the study and subsequently centrifuged for 10 min at 3000 rpm at 4° C. Plasma samples were diluted 11-fold for glucose analysis in the Cobas System. Another 5 μl plasma sample was diluted 5-fold with 20 μl of Sample Diluent (Insulin ELISA assay kit, Crystal Chem. Inc.) and stored at −20° C. for subsequent analysis using the Ultra Sensitive Mouse Insulin ELISA kit (Crystal Chem Inc.).

Data set [4] is described as follows: Exposure during ipGTT in ob/ob mice. Format: in vivo, mouse. The conditions noted are these: sc injection. Here is the method:
as §5

Data set [5] can be described thus: Dog pharmacokinetic study. It is filed as in vivo. The conditions noted are these: sc 67 μg/kg; vehicle propylene glycol/pH 7.4 phosphate buffer (1:1). Here is the method: The pharmacokinetic parameters of the Compounds of SEQ ID NO: 9, 118, 151 and 158 were determined in male beagle dogs (n=3-4, 14±1 kg). Following an overnight fast, each animal received the Compounds of SEQ ID NO: 9, 118, 151 and 158 either as an intravenous bolus via femoral vein (67 μg/kg) or by subcutaneous injection given at near the shoulder blades (67 μg/kg). Each animal received both intravenous and subcutaneous doses with a one-week washout between doses following a crossover design. The dosing vehicle for both routes of administration was propylene glycol:pH 7.4 phosphate buffer (50:50) or 0.2 M Tris (pH 8.0). Serial blood samples were collected in EDTA-containing microcentrifuge tubes at predose, 0.083, 0.25, 0.5, 0.75, 1, 2, 4, 6, 8, 24, and 30 hours post-dose after intravenous administration; at predose, 0.25, 0.5, 0.75, 1, 2, 4, 6, 8, 24, and 30 hours post-dose after subcutaneous administration. Approximately 0.3 mL of blood was collected at each time point. Blood samples were immediately centrifuged at 4° C. The obtained plasma was frozen with dry ice and stored at −20° C. Plasma drug levels were determined using the LC-MS/MS assay described below.
Plasma samples from the in vivo dog study were prepared for analysis by precipitating plasma proteins with two volumes of AcCN containing an internal standard. The samples were vortex mixed and the precipitated proteins were removed by centrifugation. The resulting supernatants were transferred to a 96-well plate and 10 μL were injected for TFC-LC/MS/MS analysis.
The TFC-HPLC system (Cohesive TX-1 Flux, Aria 2300 System) consisted of a loading pump, an eluting pump, and a CTC PAL autosampler (Cohesive Technologies, Franklin, Mass.). The columns used were Phenomenex Synergi Fusion-RP (C18, 2.0×50 mm, 4μ) (Phenomenex, Torrance, Calif.) as the analytical column and Turbo-Flow (TF) HTLC Cyclone column (0.5×50 mm) (Cohesive Technologies, Franklin, Mass.) as the extraction column for on-line sample processing. The mobile phase A consisted of 10 mM ammonium formate and 0.1% formic acid in water and mobile phase B consisted of 0.1% formic acid in AcCN. Turbo-Flow Chromatography was used to obtain a cleaner sample. A rapid gradient elution was used for analyte separation. The samples were injected onto the Turbo-Flow HTLC Cyclone column and analytes were separated from biological fluid components with using 100% H2O at 1.5 mL/min. The TF column was back flushed and analytes were back eluted from the TF to HPLC analytical column using a ramp to 60% B over 2 min and held there for 30 seconds at 0.3 mL/min to separate and to elute the analytes from the HPLC column into the mass spectrometer. Both columns were washed for an additional minute and then both columns were re-equilibrated at initial conditions.
The HPLC was interfaced to a Sciex API 4000 mass spectrometer (Applied Biosystems, Foster City, Calif.) and was equipped with a TurboIonspray ionization source. Ultra high purity nitrogen was used as the nebulizing and turbo-gas. The temperature of turbo-gas was set at 300° C. and the interface heater was set at 60° C. Selected Reaction Monitoring (SRM) was used for data acquisition. Multiple charged ion species, i.e. (M+2H)^2+ for Compound of SEQ ID NO: 158 were selected in Q1 and were collisionally dissociated with high purity nitrogen at a pressure of 3.5×10^−3 torr in Q2 to form specific product ions which were subsequently monitored in Q3. The ion transitions and voltages are summarized below (Table 4).
The standard curve concentrations, ranging from 1 to 1000 nM, were analyzed in duplicate. The curves were fitted with a linear regression weighted by reciprocal concentration […]. Quality control (QC) samples, prepared in blank matrix at the same concentrations as the standards were also analyzed in each analytical set. […]

SMILES strings stand for the structures. Where a SMILES comes first, the peptide text is derived from it. [ ]: non-standard residue; d: D form. ξ: configuration not given here. Ala(6-(2-MePh)pyridin-3-yl) = Cc1ccccc1-c1ccc(C[C@H](N)C(=O)O)cn1; Bip(2'-Et-4'-OMe) = CCc1cc(OC)ccc1-c1ccc(C[C@H](N)C(=O)O)cc1; ξαMePhe(2-F) = CC(N)(Cc1ccccc1F)C(=O)O; ξαMeP = CC1(C(=O)O)CCCN1

Turning to `CCc1cc(O)ccc1-c1ccc(C[C@H](NC(=O)[C@H](CC(=O)O)NC(=O)[C@H](CO)NC(=O)[C@@H](NC(=O)[C@](C)(Cc2ccccc2F)NC(=O)[C@@H](NC(=O)CNC(=O)[C@H](CCC(=O)O)NC(=O)[C@]2(C)CCCN2C(=O)C(Cc2c[nH]cn2)OC)[C@@H](C)O)[C@@H](C)O)C(=O)N[C@@H](Cc2ccc(-c3ccccc3C)nc2)C(N)=O)cc1` (single isomer, unassigned) [SEQ ID NO: 174], the results for the “Mean Hill” value in data set [1] and in data set [2] were 2.1 and 2.7, respectively.

Regarding `CCc1cc(O)ccc1-c1ccc(C[C@H](NC(=O)[C@H](CC(=O)O)NC(=O)[C@H](Cc2c[nH]cn2)NC(=O)[C@@H](NC(=O)[C@](C)(Cc2ccccc2F)NC(=O)[C@@H](NC(=O)CNC(=O)[C@H](CCC(=O)O)NC(=O)[C@]2(C)CCCN2C(=O)C(Cc2c[nH]cn2)OC)[C@@H](C)O)[C@@H](C)O)C(=O)N[C@@H](Cc2ccc(-c3ccccc3C)nc2)C(N)=O)cc1` (single isomer, unassigned) [SEQ ID NO: 176], the “Mean Hill” value in data set [1] worked out at 1.9; in data set [2], 3.1.

As to `CCc1cc(O)ccc1-c1ccc(C[C@H](NC(=O)[C@H](CC(=O)O)NC(=O)[C@H](Cc2c[nH]cn2)NC(=O)[C@@H](NC(=O)[C@](C)(Cc2ccccc2F)NC(=O)[C@@H](NC(=O)CNC(=O)[C@H](CCC(=O)O)NC(=O)[C@]2(C)CCCN2C(=O)C(Cc2c[nH]cn2)OC)[C@@H](C)O)[C@@H](C)O)C(=O)N[C@@H](Cc2ccc(-c3ccccc3C)nc2)C(N)=O)cc1` (single isomer, unassigned) [SEQ ID NO: 175], in data set [1], the “Mean Hill” value was 2.7 and the Emax worked out at 100%. In addition, in data set [2], the Emax was found to be 105% and the “Mean Hill” value was determined as 2.8.

For `CCc1cc(OC)ccc1-c1ccc(C[C@H](NC(=O)[C@H](CC(=O)O)NC(=O)[C@H](CO)NC(=O)[C@@H](NC(=O)C(C)(Cc2ccccc2F)NC(=O)[C@@H](NC(=O)CNC(=O)[C@H](CCC(=O)O)NC(=O)C2(C)CCCN2C(=O)[C@@H](N)Cc2c[nH]cn2)[C@@H](C)O)[C@@H](C)O)C(=O)N[C@@H](Cc2ccc(-c3ccccc3C)nc2)C(N)=O)cc1` (stereo partly drawn) [SEQ ID NO: 118] (H-H[ξαMeP]EGT[ξαMePhe(2-F)]TSD[Bip(2'-Et-4'-OMe)][Ala(6-(2-MePh)pyridin-3-yl)]-NH2), in data set [3] (10 nmol/kg sc, relative to vehicle-treated group), the “Potency in ob/ob mice: % AUC Reduction in Plasma Glucose in an IP Glucose Tolerance Test after SC Injection of Compound” value is listed as −70% (p < 0.001). Also, the “plasma glucose AUC decreased” value in data set [3] (30 nmol/kg sc, ipGTT ob/ob mice) was determined as 81%. The “Potency in ob/ob mice ED50” value in data set [3] is 2.5 nmol/kg; in data set [3] (listed as 118) it was “ED50 = 2.5 nmoles/kg”. Besides, the “effect on postprandial plasma glucose” value in data set [3] (sc, ipGTT ob/ob mice, 0 to 180 or 210 min) is given as “statistically significant decrease”. Besides, the “Exposure/dose during ipGTT in ob/ob mice” value in data set [4] came to 4.4 nM * h/nmol/kg. The “Exposure in dogs (sc@67 μg/kg)” value in data set [5] amounted to 4.02 µM·h.

With `CCc1cc(O)ccc1-c1ccc(C[C@H](NC(=O)[C@H](CC(=O)O)NC(=O)[C@H](CO)NC(=O)[C@@H](NC(=O)[C@](C)(Cc2ccccc2F)NC(=O)[C@@H](NC(=O)CNC(=O)[C@H](CCC(=O)O)NC(=O)[C@]2(C)CCCN2C(=O)C(Cc2c[nH]cn2)OC)[C@@H](C)O)[C@@H](C)O)C(=O)N[C@@H](Cc2ccc(-c3ccccc3C)nc2)C(N)=O)cc1` (single isomer, unassigned) [SEQ ID NO: 173], in data set [1], the “Mean Hill” value was 1.4 and the Emax is 99.7%. Moreover, in data set [2], the Emax amounted to 95.6% and the “Mean Hill” value was 2.6.

As for `CCc1cc(O)c(I)cc1-c1ccc(C[C@H](NC(=O)[C@H](CC(=O)O)NC(=O)[C@H](CO)NC(=O)[C@@H](NC(=O)C(C)(Cc2ccccc2F)NC(=O)[C@@H](NC(=O)CNC(=O)[C@H](CCC(=O)O)NC(=O)C2(C)CCCN2C(=O)[C@H](Cc2c[nH]cn2)NC(=O)OC)[C@@H](C)O)[C@@H](C)O)C(=O)N[C@@H](Cc2ccc(-c3ccccc3C)nc2)C(N)=O)cc1` (stereo partly drawn) [SEQ ID NO: 164], in data set [1], the “Mean Hill” value is given as 2.7 and the Emax was found to be 103%. In data set [2], a half-maximal effect (EC50) was put at 0.01 nM, the Emax was 97.2% and the “Mean Hill” value came to 1.5.

What is called Emax is the size of the effect at its maximum, as opposed to the concentration needed. As a reminder, the EC50 is the concentration needed to bring the measured effect to its halfway point. The low end stands for an effect from little substance, the high end for a need for much substance.
